On the set-up of series [1]: method as in PMID 16231964. The note with it: cited from earlier work.
Series [2] is described as follows: Pharmacokinetic assessment of plasma concentrations (LC-MS/MS, non-compartmental analysis) after mono/dual and triple therapy. To be noted: for AUC(0-inf) / AUC(0-t) / Cmax / Vd/F / Tmax / half-life: male, human, plasma; for AUC(0-inf) / AUC(0-t) / Cmax / Vd/F / half-life: oral; for Tmax: po, median (min–max).
Protocol: (§1) This was a randomised, open-label, one-way crossover, two parallel sequences study. A total of 32 subjects were randomised and assigned to one of the two parts. Subjects assigned to part 1 received a single dose of ilaprazole (Noltec Tab., IL-YANG Pharmaceutical Co.) 10 mg in the first period. Then, after a washout period of 10 days, clarithromycin (Klaricid Film Coated Tab., Abbott Korea) 500 mg and amoxicillin (Amoxicillin Cap. 500 mg Chongkundang, Chong Kun Dang Pharmaceutical Co., Korea) 1000 mg were administered twice daily for 6 days in the second period. Ilaprazole 10 mg was coadministered with clarithromycin and amoxicillin on the day 5 of the second period.
(§2) Subjects assigned to part 2 received single doses of both clarithromycin 500 mg and amoxicillin 1000 mg in the first period; after a washout period of 10 days, ilaprazole 10 mg was administered twice daily for 6 days in the second period. Clarithromycin 500 mg and amoxicillin 1000 mg were coadministered with ilaprazole on the day 5 of the second period (Fig. 1).
(§3) Serial blood samples were collected in anti-coagulated EDTA-K2 tubes at 0 (pre-dose), 1, 2, 2.5, 3, 3.5, 4, 4.5, 5, 6, 8, 12, 24, and 48 h after dosing of ilaprazole in part 1. The PK sampling points in part 2 were 0 (pre-dose), 0.5, 0.75, 1, 1.5, 2, 2.5, 3, 4, 6, 8, 12, 24, and 48 h after dosing of clarithromycin and amoxicillin. Blood sampling points were determined considering the time to reach peak concentration (Tmax) and elimination half-life (t1/2) of ilaprazole, clarithromycin, and amoxicillin [9, 10, 20]. Plasma concentrations of ilaprazole, clarithromycin, and amoxicillin were analysed using liquid chromatography-tandem mass spectrometry (LC-MS/MS). Samples were centrifuged for 10 min under 4 °C at 2000×g and stored below − 70 °C until analysis.
(§4) For the analysis of ilaprazole, 100 μL of plasma was added to polypropylene tubes and mixed with 10 μL of the internal standard (omeprazole) solution and 1 mL of acetonitrile. The mixture was vortexed for 1 min and centrifuged for 5 min at 11,337×g. The supernatant (100 μL) was collected and reconstituted with 600 μL of mobile phase. The supernatant (2 μL) was then injected into an LC-MS/MS system. An LC system (Shiseido Nanospace SI-2, Shiseido, Tokyo, Japan) was used with a mobile phase (10 mM ammonium formate/acetonitrile = 50/50 [v/v]) at 40 °C. Chromatographic separation was performed at a flow rate of 0.25 mL/min. The transition of ilaprazole was detected at m/z 367.0 to 184.2 by using an MS/MS system (API4000®, AB SCIEX, Washington DC, USA) in the multiple reaction monitoring (MRM) mode with a positive electrospray ionisation (ESI) source. The calibration curve was linear over the range of 5–1000 ng/mL, and the correlation coefficient (r) was > 0.995.
(§5) For the analysis of clarithromycin, 100 μL of plasma was added to polypropylene tubes and mixed with 10 μL of the internal standard (clarithromycin-N-methyl-^13C, d3) solution and 500 μL of acetonitrile. The mixture was vortexed for 1 min and centrifuged for 5 min at 11,337×g. The supernatant (50 μL) was collected and reconstituted with 1000 μL of 50% acetonitrile. The supernatant (3 μL) was then injected into the LC-MS/MS system. The LC system was used with a mobile phase (10 mM ammonium formate/acetonitrile = 20/80 [v/v]) at 40 °C. Chromatographic separation was performed at a flow rate of 0.2 mL/min. The transition of clarithromycin was detected at m/z 748.4 to 590.4 using an MS/MS system (4000QTRAP, AB SCIEX, Washington DC, USA) in the MRM mode with a positive ESI source. The calibration curve was linear over the range of 10–7000 ng/mL, and the correlation coefficient (r) was > 0.995.
(§6) For the analysis of amoxicillin, 100 μL of plasma was added to polypropylene tubes and mixed with 10 μL of internal standard (amoxicillin-d4) solution and 500 μL of acetonitrile. The mixture was vortexed for 1 min and centrifuged for 5 min at 11,337×g.
The nature of another series: clinical. To be noted: male, human, in vivo, t1/2.
For series [3] the following is noted: in vivo.
Protocol: as §1, §2, §3, §4, §5, §6
Series [4] is described as follows: Safety assessment: adverse events and adverse drug reactions. To be noted: Part I. In kind it is in vivo, healthy Korean male volunteers. Here is the method: Safety and tolerability were evaluated throughout the study. The assessments included monitoring of all adverse events (AEs) based on physical examinations, vital signs, 12-lead ECG, routine haematology, serum chemistry, and urinalysis. The subjects were instructed to notify the study physicians or nurses of any AEs that occurred during the study. All AEs reported by subjects or detected in the assessments were recorded, and the investigators determined their relationship to the treatment. The severity of the AEs was evaluated based on the Common Terminology Criteria for Adverse Events (CTCAE, version 4.03).

[5] abbreviates: AUCinf, dual therapy, period 1 of part 2, N = 15, arithmetic mean (SD).
The mark [6] stands for this setting: AUCinf, geometric least square mean, dual therapy, period 1 of part 2, N = 15.
[7] abbreviates: AUCinf, geometric least square mean, triple therapy, period 2 of part 2, N = 15.
The mark [8] stands for this setting: AUCinf, triple therapy, period 2 of part 2, N = 15, arithmetic mean (SD).
[9] abbreviates: AUClast, dual therapy, period 1 of part 2, N = 15, arithmetic mean (SD).
Where [10] appears, read: AUClast, geometric least square mean, dual therapy, period 1 of part 2, N = 15.
The mark [11] stands for this setting: AUClast, geometric least square mean, triple therapy, period 2 of part 2, N = 15.
[12] abbreviates: AUClast, triple therapy, period 2 of part 2, N = 15, arithmetic mean (SD).
Where [13] appears, read: dual therapy, period 1 of part 2, N = 15, arithmetic mean (SD).
Where [14] appears, read: geometric least square mean, dual therapy, period 1 of part 2, N = 15.
Setting [15] is: geometric least square mean, triple therapy, period 2 of part 2, N = 15.
Where [16] appears, read: triple therapy, period 2 of part 2, N = 15, arithmetic mean (SD).
Setting [17] is: clarithromycin 500 mg + amoxicillin 1000 mg oral single dose (dual therapy, period 1 of part 2), N = 15.
Setting [18] is: clarithromycin 500 mg + amoxicillin 1000 mg oral with ilaprazole 10 mg (triple therapy, day 5 of period 2, part 2), N = 15.
[19] abbreviates: ilaprazole in triple therapy, period 2 of part 1, N = 13, arithmetic mean (SD).
The mark [20] stands for this setting: 10 mg, ilaprazole monotherapy, period 1 of part 1, N = 13, arithmetic mean (SD).

Protocol for clinical: as §1, §2, §3, §4, §5, §6

Take `CC1(C)S[C@@H]2[C@H](NC(=O)[C@H](N)c3ccc(O)cc3)C(=O)N2[C@H]1C(=O)O` [Amoxicillin, amoxicillin]: in series [1], the bioavailability is listed as 89–98%. In addition, the AUC(0-inf) stood at 28500 ng·h/mL in series [2] (setting [5]), 27200 ng·h/mL in series [2] (setting [6]), 26900 ng·h/mL in series [2] (setting [7]) and 27400 ng·h/mL in series [2] (setting [8]). Also, the AUC(0-t) in series [2] (setting [9]) stood at 27900 ng·h/mL; in series [2] (setting [10]), 26700 ng·h/mL; in series [2] (setting [11]), 26200 ng·h/mL; in series [2] (setting [12]), 26700 ng·h/mL. For the same molecule, the Cmax stood at 9370 ng/mL in series [2] (setting [13]), 9140 ng/mL in series [2] (setting [14]), 7910 ng/mL in series [2] (setting [15]) and 8140 ng/mL in series [2] (setting [16]). For the same molecule, the Vd/F in series [2] (setting [13]) is 64.7 L; in series [2] (setting [16]) it was 95.1 L. Besides, the Tmax in series [2] (setting [17]) was found to be 1.5 h; in series [2] (setting [18]) it was 2 h. In the series “clinical”, this molecule showed a half-life of 1.18 h. In addition, in series [3], the “Plasma amoxicillin concentrations at 48 h after study drug administration” value is “not detected”. Besides, the “AUCinf GMR (90% CI), triple therapy/dual therapy” value in series [3] (male, human) is listed as 0.99 (0.83–1.17). Moreover, in series [3] (male, human), the “AUClast GMR (90% CI), triple therapy/dual therapy” value is listed as 0.98 (0.83–1.16). Also, in series [3] (male, human), the t1/2 was 1.96 (3.26) h.
Turning to `CC[C@H]1OC(=O)[C@H](C)[C@@H](O[C@H]2C[C@@](C)(OC)[C@@H](O)[C@H](C)O2)[C@H](C)[C@@H](O[C@@H]2O[C@H](C)C[C@H](N(C)C)[C@H]2O)[C@](C)(OC)C[C@@H](C)C(=O)[C@H](C)[C@@H](O)[C@]1(C)O` [Clarithromycin, clarithromycin], the CL/F in series [2] (setting [13]) is 36.6 (12.7) L/h; in series [2] (setting [16]), 34.4 (15.1) L/h. Also, the AUC(0-inf) in series [2] (setting [5]) was determined as 15000 ng·h/mL; in series [2] (setting [6]), 14400 ng·h/mL; in series [2] (setting [7]), 15700 ng·h/mL; in series [2] (setting [8]) it was 16900 ng·h/mL. The AUC(0-t) in series [2] (setting [9]) worked out at 14600 ng·h/mL; in series [2] (setting [10]), 14000 ng·h/mL; in series [2] (setting [11]), 15300 ng·h/mL; in series [2] (setting [12]) it was 16500 ng·h/mL. The Cmax in series [2] (setting [13]) was determined as 1870 ng/mL; in series [2] (setting [14]), 1770 ng/mL; in series [2] (setting [15]), 1590 ng/mL; in series [2] (setting [16]), 1720 ng/mL. The Vd/F in series [2] (setting [13]) was found to be 247 L; in series [2] (setting [16]), 230 L. The half-life was 4.84 h in series [2] (t1/2, dual therapy, period 1 of part 2, N = 15, arithmetic mean (SD)) and 4.83 h in series [2] (t1/2, triple therapy, period 2 of part 2, N = 15, arithmetic mean (SD)). For the same molecule, the Tmax stood at 2 h in series [2] (setting [17]) and 2.5 h in series [2] (setting [18]).
On to `COc1ccnc(C[S+]([O-])c2nc3cc(-n4cccc4)ccc3[nH]2)c1C` (centres unmarked) [Ilaprazole, ilaprazole], for which the CL/F in series [2] (setting [19]) is 3.04 (1.11) L/h; in series [2] (ilaprazole monotherapy, period 1 of part 1, N = 13, arithmetic mean (SD)), 3.28 (1.23) L/h. Besides, the AUC(0-inf) in series [2] (10 mg, AUCinf, geometric least square mean, ilaprazole monotherapy, period 1 of part 1, N = 13) was determined as 3220 ng·h/mL; in series [2] (10 mg, AUCinf, ilaprazole monotherapy, period 1 of part 1, N = 13, arithmetic mean (SD)), 3390 ng·h/mL; in series [2] (10 mg, mean AUCinf, ilaprazole monotherapy), 3390 ng·h/mL; in series [2] (AUCinf, geometric least square mean, ilaprazole in triple therapy, period 2 of part 1, N = 13), 3490 ng·h/mL; in series [2] (AUCinf, ilaprazole in triple therapy, period 2 of part 1, N = 13, arithmetic mean (SD)), 3680 ng·h/mL; in series [2] (mean AUCinf, ilaprazole in triple therapy), 3680 ng·h/mL. The AUC(0-t) in series [2] (10 mg, AUClast, geometric least square mean, ilaprazole monotherapy, period 1 of part 1, N = 13) turned out to be 3140 ng·h/mL; in series [2] (10 mg, AUClast, ilaprazole monotherapy, period 1 of part 1, N = 13, arithmetic mean (SD)), 3300 ng·h/mL; in series [2] (10 mg, mean AUClast, ilaprazole monotherapy), 3300 ng·h/mL; in series [2] (AUClast, geometric least square mean, ilaprazole in triple therapy, period 2 of part 1, N = 13), 3350 ng·h/mL; in series [2] (AUClast, ilaprazole in triple therapy, period 2 of part 1, N = 13, arithmetic mean (SD)), 3540 ng·h/mL; in series [2] (mean AUClast, ilaprazole in triple therapy) it was 3540 ng·h/mL. The Cmax came out at 447 ng/mL in series [2] (10 mg, geometric least square mean, ilaprazole monotherapy, period 1 of part 1, N = 13); 479 ng/mL in series [2] (setting [20]); 414 ng/mL in series [2] (geometric least square mean, ilaprazole in triple therapy, period 2 of part 1, N = 13); 446 ng/mL in series [2] (setting [19]). For the same molecule, the Vd/F worked out at 19.5 L in series [2] (setting [20]) and 20.4 L in series [2] (setting [19]). The half-life in series [2] (10 mg, t1/2, ilaprazole monotherapy, period 1 of part 1, N = 13, arithmetic mean (SD)) is 4.16 h; in series [2] (t1/2, ilaprazole in triple therapy, period 2 of part 1, N = 13, arithmetic mean (SD)), 4.66 h. The Tmax in series [2] (10 mg, ilaprazole 10 mg oral single dose alone (monotherapy, period 1 of part 1), N = 13) came to 3.5 h; in series [2] (ilaprazole 10 mg oral with clarithromycin 500 mg and amoxicillin 1000 mg (triple therapy, day 5 of period 2, part 1), N = 13), 3 h. Moreover, the “Subjects with adverse drug reactions” value in series [4] is on record as “no drug-related AE”. In addition, the “Subjects with any adverse event” value in series [4] is reported as 5 (31.3) number (%) of subjects.

A word on the AUC(0-inf): it is total exposure, with the tail of the curve extrapolated. One may read the AUC(0-t) as the area under the concentration-time curve up to a stated or last time point. Low values mean less exposure, high ones more exposure. By Cmax is commonly meant the highest concentration seen after dosing. As usually defined, the Vd/F is the apparent distribution volume after extravascular dosing. Broadly, the Tmax is the time at which the peak concentration occurs. For orientation: half-life means how long it takes for the measured level to halve. Read a low half-life as rapid decline.
